We go through one compound from US8227616B2, “Cyanopyridine antibacterial agents and methods of use thereof” (Wisconsin Alumni Research Foundation, priority 2006, dated 2012).

In the test the test system is S. aureus ATCC 10390. Nature of the test: Agar overlay TTC assay. The test is classed as cell-based, Staphylococcus aureus. Conditions: methicillin susceptibility disk 10 μg, agar overlay TTC assay, 18 h. The text has this: To take advantage of the spatially-addressed nature of the macroarray format, an agar overlay assay was employed that utilizes TTC (triphenyl tetrazolium chloride) as a visualization agent (FIG. 2[…].; Lu, A. T.; Solas, D. W.; Gore, […].; Coffin, […].; Wang, […].; Look, G. C.; Campbell, […]. Antimicrob. Agents Chemother. 1998, 1447-1453. Unfortunately, during macroarray synthesis the planarity of the support is not fully maintained, and small wrinkles develop in this particular assay. This problem was solved by using an adaptation of the common Western Blot technique to copy the macroarray members from the support to fresh wrinkle-free sheets while maintaining the spatially-addressed nature. This transfer can be completed in 90 seconds and four copies can be made at a time, however to date, it is applicable only for smaller macroarrays (6 cm×6 cm, 16 spots). The full macroarray was easily divided into these dimensions. The copies allowed for replicates to be made, and the original, which cannot be used in the assay, is used to validate the compounds by LCMS. As an added feature, the sensitivity of the assay was tuned by simply changing the amount of agar applied to the array. The copies generated in the assay can also be easily used to screened against multiple organisms. […] This assay format also took advantage of the spatially addressed nature of the arrays (FIG. 2C). […]

On to `COc1cccc(OC)c1C(=O)N[C@@H]1C(=O)N2[C@@H]1SC(C)(C)[C@@H]2C(=O)O` [methicillin, reference compound], for which the Zone of inhibition amounted to 39 mm.
